This note sets out measurements from ChEMBL document CHEMBL1130959, “Synthesis and effects of novel thiazole derivatives against thrombocytopenia” (1998).

Holding throughout (type): functional
Holding throughout (conditions): route oral

The subject of experiment [1] is Mus musculus. The experiment is described as follows: Percentage of the number of platelets for the treated versus mitomycin C(MMC) control group in the MMC-induced thrombocytopenic mice at a dose of 100 mg/kg following peroral administration.
Experiment [2] concerns Mus musculus. The experiment in a line: Percentage of the number of platelets for the treated versus mitomycin C(MMC) control group in the MMC-induced thrombocytopenic mice at a dose of 32 mg/kg following peroral administration.
In experiment [3] the test system is Mus musculus. The experiment in a line: Percentage of the number of platelets for the treated versus mitomycin C(MMC) control group in the MMC-induced thrombocytopenic mice at a dose of 10 mg/kg following peroral administration.

In the case of `Nc1ncc([S+]([O-])c2nccs2)s1` (configuration not stated), the No. of platelets in the experiment on Mus musculus [1] amounted to 146%.
As for `[O-][S+](c1ccccn1)c1cncs1` (configuration not stated), the No. of platelets is 171% in the experiment with Mus musculus [1], 148% in the experiment with Mus musculus [2] and 124% in the experiment on Mus musculus [3].
With `Nc1ncc([S+]([O-])c2cccc3cccnc23)s1` (configuration not stated), the values for the No. of platelets in the experiment on Mus musculus [1], in the experiment with Mus musculus [2] and in the experiment with Mus musculus [3] were 188%, 123% and 116%, respectively.
Consider `Nc1ncc([S+]([O-])c2ccc3ccccc3n2)s1` (configuration not stated), for which the No. of platelets in the experiment with Mus musculus [1] is 181%; with Mus musculus [2], 153%; in the experiment on Mus musculus [3] it was 138%.
As for `Cc1ccc2nc([S+]([O-])c3cnc(N)s3)ccc2c1` (configuration not stated), the No. of platelets in the experiment on Mus musculus [1] was 146%.
For the compound `Nc1ncc([S+]([O-])c2nc3ccccc3[nH]2)s1` (configuration not stated), the No. of platelets was 165% in the experiment on Mus musculus [1], 112% in the experiment with Mus musculus [2] and 92% with Mus musculus [3].
The compound `Nc1ncc([S+]([O-])c2ccccn2)s1` (configuration not stated) came in with a No. of platelets in the experiment on Mus musculus [2] of 154%.
Consider `Nc1ncc([S+]([O-])c2ncccn2)s1` (configuration not stated), for which, in the experiment on Mus musculus [2], the No. of platelets is recorded as 116%.
In the case of `Nc1ncc([S+]([O-])c2ccc3cc(F)ccc3n2)s1` (configuration not stated), the No. of platelets with Mus musculus [1] stood at 162%.
Compound `Nc1ncc([S+]([O-])c2cccnc2)s1` (configuration not stated) returned a No. of platelets in the experiment on Mus musculus [2] of 115%.
For the compound `Nc1ncc(S(=O)(=O)c2ccccn2)s1`, the figures for the No. of platelets in the experiment with Mus musculus [1], with Mus musculus [2] and in the experiment on Mus musculus [3] were 139%, 143% and 94%, respectively.
For `Nc1ncc(C(=O)c2ccccn2)s1`, in the experiment with Mus musculus [1], the No. of platelets is reported as 140%.
Same read-out and setting: with `Nc1ncc(Sc2ccccn2)s1` the figure was 147%; with `Nc1ncc([S+]([O-])c2cnc3ccccc3n2)s1` (configuration not stated), 131%; with `Nc1ncc([S+]([O-])c2cccs2)s1` (configuration not stated), 138%.
Regarding `CNc1ncc([S+]([O-])c2ccccn2)s1` (configuration not stated), the No. of platelets in the experiment with Mus musculus [1] came to 132%.
With `Nc1ncc([S+]([O-])c2ccc3cccnc3n2)s1` (configuration not stated), the No. of platelets with Mus musculus [2] was 130%.
Compound `Cc1nc(N)sc1[S+]([O-])c1ccccn1` (configuration not stated) returned a No. of platelets with Mus musculus [1] of 118%.
Still for that read-out and setting: with `Nc1nnc([S+]([O-])c2ccc3ccccc3n2)s1` (configuration not stated) the figure was 102%.
For the compound `Nc1ccc(S(=O)(=O)c2ccc(N)cc2)cc1` [DAPSONE], the No. of platelets in the experiment on Mus musculus [1] worked out at 150%; in the experiment on Mus musculus [2], 125%; in the experiment with Mus musculus [3] it was 91%.
